Molecules are shown by their SMILES.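 Briefly, cells in 96-well plates were exposed to five compound concentrations for 48 h, and endpoints were estimated by linear interpolation. GI50 = concentration required for 50% inhibition of growth. At the TGI there is no net growth.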

Among the test systems are KM20L2 colon; SR leukemia; LOX IMVI melanoma; NCI-H460 lung; SF-539 CNS; DLD-1 colon; NCI-H23 lung; COLO 205 colon; NCI/ADR-RES ovarian; DU-145 prostate.
What all share (assay): NCI tumour cell line growth inhibition, 48 h

Turning to `CC1=C(c2ccccc2)C(c2ccccc2)=C(c2ccccc2)C2(c3ccccc3)C(=O)C(C)CN12` (stereo not given), the TGI in the assay with KM20L2 colon, in the assay on SR leukemia, in the assay with LOX IMVI melanoma, with NCI-H460 lung, in the assay on SF-539 CNS and in the assay on DLD-1 colon was > 100 µM in each case.

Turning to `CCc1ccccc1NC(=O)C1=C(C)NC(C)=C(C(=O)Nc2ccccc2CC)C1c1ccccc1Cl`, the TGI with NCI-H23 lung, in the assay on KM20L2 colon, with LOX IMVI melanoma, in the assay on COLO 205 colon, in the assay on NCI-H460 lung and in the assay on SF-539 CNS was > 100 µM in each case. Also, in the assay with DLD-1 colon, the TGI is > 100 µM.

For the molecule `CCCCCCCCCCCc1nnc(N)o1`, the TGI with NCI-H23 lung, with KM20L2 colon, in the assay with LOX IMVI melanoma, with COLO 205 colon, in the assay with NCI-H460 lung and with SF-539 CNS was > 100 µM in each case. Also, in the assay on DLD-1 colon, the TGI is > 100 µM.

For the molecule `CN(/N=C/c1cccc2cccnc12)c1ccc([N+](=O)[O-])cc1[N+](=O)[O-]`, the TGI in the assay with NCI-H23 lung is 50.1 µM; in the assay on KM20L2 colon, > 100 µM; in the assay with LOX IMVI melanoma it was > 100 µM; with COLO 205 colon it was > 100 µM; in the assay with NCI/ADR-RES ovarian, > 100 µM; in the assay with NCI-H460 lung, > 100 µM. In addition, the TGI in the assay with SF-539 CNS was 32.1 µM; with DLD-1 colon, > 100 µM; in the assay on DU-145 prostate, > 100 µM.

In the case of `O/N=C1/C(=C/c2ccc3c(c2)OCO3)CCCC1C(NO)c1ccc2c(c1)OCO2` (stereo not given), the TGI in the assay on NCI-H23 lung was 72.5 µM; with KM20L2 colon it was 34.6 µM; with COLO 205 colon, 64.9 µM; with NCI-H460 lung, 71.1 µM; in the assay on SF-539 CNS, 32.4 µM; in the assay on DLD-1 colon it was 98.8 µM.

Consider `O=C1N(C2CCCCC2)CC12CCCCC2`, for which the TGI in the assay on NCI-H23 lung, in the assay on KM20L2 colon, with LOX IMVI melanoma, in the assay with COLO 205 colon, with NCI-H460 lung and with SF-539 CNS was > 100 µM throughout.

In the case of `CC1=C(C(=O)Nc2cc(=O)n(C)c(=O)n2C)C(c2ccco2)C(C(=O)Nc2cc(=O)n(C)c(=O)n2C)=C(C)N1`, the TGI in the assay on NCI-H23 lung, with KM20L2 colon, with LOX IMVI melanoma, with COLO 205 colon, in the assay on NCI-H460 lung and in the assay with SF-539 CNS was > 100 µM each time. Also, the TGI with DLD-1 colon was > 100 µM.

On to `O=C(NCCCCNc1cccccc1=O)OCc1ccccc1`, for which the TGI with NCI-H23 lung, in the assay with KM20L2 colon, with LOX IMVI melanoma, in the assay on COLO 205 colon, in the assay with NCI-H460 lung and in the assay on DLD-1 colon was > 100 µM in each case.

As to `N.N.N.N.[Co+3].[N-]=[N+]=[N-].[N-]=[N+]=[N-].[N-]=[N+]=[N-]`, the GI50 was > 100 µM with NCI-H23 lung; > 100 µM in the assay on KM20L2 colon; > 100 µM in the assay on LOX IMVI melanoma; > 100 µM in the assay on COLO 205 colon; > 100 µM in the assay on NCI-H460 lung; 26.6 µM in the assay on SF-539 CNS. Further, the GI50 in the assay on DLD-1 colon was > 100 µM. In addition, the TGI with NCI-H23 lung, in the assay with KM20L2 colon, with LOX IMVI melanoma, in the assay with COLO 205 colon, in the assay on NCI-H460 lung and in the assay with SF-539 CNS was > 100 µM each time. The TGI in the assay on DLD-1 colon was > 100 µM.

Take `COc1ccc(C23C(=O)c4ccccc4N2O[C@H]2C(=O)N(c4ccccc4)C(=O)[C@H]23)cc1` (stereo not given in full): the TGI in the assay on NCI-H23 lung, in the assay with KM20L2 colon, with LOX IMVI melanoma, in the assay with COLO 205 colon, in the assay with NCI-H460 lung and in the assay on SF-539 CNS was > 100 µM each time. For the same molecule, in the assay with DLD-1 colon, the TGI was > 100 µM.

Take `CC1(C)O[C@H]2[C@H](O)C[C@](O)(CO)C[C@H]2O1`: the TGI in the assay with NCI-H23 lung, in the assay with KM20L2 colon, in the assay with SR leukemia, in the assay on COLO 205 colon, with NCI-H460 lung and in the assay with SF-539 CNS was > 100 µM throughout. Further, the TGI in the assay on DLD-1 colon was > 100 µM.

Consider `C[C@]12CC[C@@H]3c4ccc(OC(=O)N(CCCl)CCCl)cc4CC[C@H]3[C@@H]1CC[C@@H]2O`, for which the GI50 in the assay on NCI-H23 lung was 2.79 µM; in the assay with SR leukemia, 0.135 µM; in the assay on LOX IMVI melanoma it was 2.43 µM; with COLO 205 colon, 2.99 µM; in the assay with NCI/ADR-RES ovarian, 1.92 µM; with NCI-H460 lung, 2.75 µM. In addition, the GI50 in the assay with SF-539 CNS was 1.69 µM; in the assay on DU-145 prostate, 2.53 µM. The TGI in the assay on SR leukemia was 1.42 µM; in the assay with LOX IMVI melanoma it was 14.3 µM; in the assay on COLO 205 colon, 8.94 µM; in the assay on NCI/ADR-RES ovarian, 8.81 µM; in the assay with NCI-H460 lung, 12.9 µM; in the assay with SF-539 CNS it was 4.27 µM. In addition, the TGI worked out at 1.05 µM with DLD-1 colon and 8.63 µM with DU-145 prostate.

For the molecule `CCOC(=O)C12CCCC1(O)N(NC(=O)OC(C)(C)C)C(C)=C2C(=O)OC` (stereo not given), the TGI with NCI-H23 lung, in the assay on KM20L2 colon, in the assay with LOX IMVI melanoma, with COLO 205 colon, with NCI-H460 lung and in the assay with SF-539 CNS was > 100 µM throughout. In addition, in the assay on DLD-1 colon, the TGI was > 100 µM.

Source of the values: PubChem BioAssay (NCI).
